Structures can show the parent of a compound that is named as a salt. Where two headings read alike, the source gives them in different places.
Columns and labels:
[1] = Rat hepatocytes metabolic stability assay; type: in vitro ADME; conditions: male, cryopreserved hepatocytes; rat hepatocytes 1×10^6 viable cells/mL
Protocol: (§1) Rat/Human Hepatocytes Metabolic Stability Assay
(§2) 2) 30 mM stock solutions of test compounds were prepared in DMSO. Thawing medium and supplement incubation medium (serum-free) were placed in a 37° C. water bath for at least 15 minutes prior to use. Stock solutions were diluted to 500 μM by combining 295 μL acetonitrile and 5 μL of 30 mM stock solution. 3) Vials of cryopreserved hepatocytes were removed from storage, ensured that vials remain at cryogenic temperatures. The pressure was removed by loosening and re-tightening the cap. The vials were thawed in a 37° C. water bath with gently shaking. Vials were kept in water bath until all ice crystals had dissolved and were no longer visible. Vials were sprayed with 70% ethanol before being transferred to a biosafety cabinet. And then the contents were poured into the 50 mL thawing medium conical tube. Vials were centrifuged at 100 g for 10 minutes at room temperature. Thawing medium was aspirated and hepatocytes were resuspended with serum-free incubation medium to yield ˜1.5×10^6 cells/mL. 4) Cell viability and density were counted using a Trypan Blue exclusion, and then cells were diluted with serum-free incubation medium to a working cell density of 1×10^6 viable cells/ml. 5) A portion of the hepatocytes at 1×10^6 viable cells/mL was boiled for 10 min prior to adding to the plate as negative control to eliminate the enzymatic activity so that little or no substrate turnover should be observed. The inactivated hepatocytes were used to prepare negative samples, which were used to exclude the misleading factor that resulted from instability of chemical itself 6) Aliquots of 247.5 μL hepatocytes were dispensed into each well of a 96-well non-coated plate. The plate was placed in the incubator on an orbital shaker at 500 rpm for approximately 10 minutes. 7) Aliquots of 2.5 μL of the 500 μM test compounds were added into respective wells of the non-coated 96-well plate to start the reaction. This assay was performed in duplicate. The plate was incubated in the incubator on an orbital shaker at 500 rpm for the designed time points. […]

[2] = Human hepatocytes metabolic stability assay; type: in vitro ADME; conditions: both sexes, cryopreserved hepatocytes; human hepatocytes 1×10^6 viable cells/mL
Protocol: as §1, §2

[3] = Rat pharmacokinetic study; conditions: male, Sprague-Dawley, plasma, 50 mg/kg
[4] = Dog pharmacokinetic study; type: in vivo, male Beagle dogs; conditions: male, Beagle, plasma, IV
Text: For dog pharmacokinetic studies, male Beagle dogs were housed individually. Dogs in oral administration groups were fasted overnight before use but with free access to water supply. Dogs in IV groups have free access to food and water. […]

[5] = background statement; cited from earlier work
[6] = background statement; cited from earlier work; remark: listed apart in the source
[7] = both, human, pooled liver S9 fractions
[8] = Rat liver S9 fractions metabolic stability assay; conditions: both, pooled liver S9 fractions

CC(C)[C@H](N)C(=O)OCCCC(=O)O [Compound 58, (S)-4-(2-amino-3-methylbutanoyloxy)butanoic acid]
half-life at 5 μM [1]: 46.7 min | half-life at 5 μM [2]: 160 min

O=C(O)CCCO [GHB sodium salt]
AUC(0-t) ([3]; iv): 25900 ng·h/mL | bioavailability ([3]; iv): 100% | AUC(0-t) ([3]; po): 6700 ng·h/mL | Cmax ([3]; po): 7600 ng/mL | Tmax ([3]; po): 17 min | bioavailability ([3]; po): 26% | AUC(0-t) ([4]; GHB sodium salt 20 mg/kg): 35700 ng·h/mL | bioavailability ([4]; GHB sodium salt 20 mg/kg (reference), read-out: Bioavailability F (%)): 100% | reduction of the total number of cataplexy episodes [5]: ~70% | plasma half-life (t1/2) [6]: < 60 min

CC(=O)N[C@H](C(=O)OCCCC(=O)O)C(C)C [Compound 67, (S)-4-(2-acetamido-3-methylbutanoyloxy)butanoic acid]
half-life at 5 μM [7]: 83.2 min | half-life at 5 μM [8]: 74.2 min | half-life at 5 μM [1]: 131 min | half-life at 5 μM [2]: 220 min

O=C(O)CCCOC(=O)Oc1ccccc1 [Compound 32, 4-(phenoxycarbonyloxy)butanoic acid]
half-life at 5 μM [7]: 40.4 min | half-life at 5 μM [8]: 8.5 min

CC(OC(=O)OCCCC(=O)O)OC(=O)c1ccccc1 (stereo not shown) [Compound 89, 4-(1-(benzoyloxy)ethoxycarbonyloxy)butanoic Acid]
half-life at 5 μM [7]: 10.5 min | half-life at 5 μM [8]: 17.5 min

CC(C)C(=O)NCC(=O)OCCCC(=O)O [Compound 64, 4-(2-isobutyramidoacetoxy)butanoic acid]
half-life at 5 μM [7]: 58 min | half-life at 5 μM [8]: 62.7 min

Cl.N[C@@H](Cc1ccccc1)C(=O)OCCCC(=O)O [hydrochloride salt of Compound 57, (S)-4-(2-amino-3-phenylpropanoyloxy)butanoic acid hydrochloride]
half-life at 5 μM [7]: 2.15 min | half-life at 5 μM [8]: 2.48 min

CC(=O)NCC(=O)OCCCC(=O)O [Compound 66, 4-(2-acetamidoacetoxy)butanoic Acid]
half-life at 5 μM [7]: 9.21 min | half-life at 5 μM [8]: 8 min | half-life at 5 μM [1]: 16.7 min | half-life at 5 μM [2]: 24.9 min

Source: patent US10941107B2, “Prodrugs of gamma-hydroxybutyric acid, compositions and uses thereof” (XW LABORATORIES INC., priority 2015, dated 2021)
